Entries after “also recorded” stand apart in the source; their conditions may differ.
Experiments:
mSir2α = biological target: T1, mSir2α (Mus musculus, UniProt Q923E4); experiment: ADP-ribosylation assay, sensitivity of mSir2α to poly- and mono-ADP-ribosylation inhibitors (histone H2B, 32P-NAD); assay type: biochemical; conditions: for inhibition of the ADP-ribosylation activity of the mSir2α protein: 40, 200 and 1000 μM
T1 construct: ADP-ribosylase activity of bacterial recombinant full-length proteins of ySir2p and mSir2α was determined in in vitro assays; 6×His; made in house; host or cells: E. coli BL21 (DE3) pLysS with an extra copy of arginine tRNA gene, pET28a
T1 sequence (Q923E4 1-737): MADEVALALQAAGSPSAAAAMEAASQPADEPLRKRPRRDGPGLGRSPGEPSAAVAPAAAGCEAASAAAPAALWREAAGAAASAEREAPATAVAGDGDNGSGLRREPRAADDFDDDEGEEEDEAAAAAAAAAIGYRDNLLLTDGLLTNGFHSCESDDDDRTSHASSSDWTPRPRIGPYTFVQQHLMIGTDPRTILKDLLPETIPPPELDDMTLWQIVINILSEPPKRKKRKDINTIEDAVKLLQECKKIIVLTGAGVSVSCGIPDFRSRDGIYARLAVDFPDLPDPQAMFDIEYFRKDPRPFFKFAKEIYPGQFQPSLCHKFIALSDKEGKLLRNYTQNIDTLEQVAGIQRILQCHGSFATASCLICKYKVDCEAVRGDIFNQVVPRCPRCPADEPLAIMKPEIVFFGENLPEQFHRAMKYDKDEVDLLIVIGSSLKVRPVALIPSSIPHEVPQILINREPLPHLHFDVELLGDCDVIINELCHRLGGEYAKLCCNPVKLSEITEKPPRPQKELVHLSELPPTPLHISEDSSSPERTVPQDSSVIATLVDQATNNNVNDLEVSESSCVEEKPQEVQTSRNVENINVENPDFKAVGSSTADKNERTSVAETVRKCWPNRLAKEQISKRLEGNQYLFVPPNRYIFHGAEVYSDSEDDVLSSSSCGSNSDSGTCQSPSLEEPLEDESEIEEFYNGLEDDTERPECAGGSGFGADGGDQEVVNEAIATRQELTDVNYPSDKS
Experimental: The typical reaction was performed in 50 or 100 μl of the buffer containing 5 mM Tris-HCl [pH8.0 or 9.0], 4 mM MgCl2, 0.2 mM DTT, 1 μM cold β-NAD^+ (SIGMA®) and 8 μCi nicotinamide adenine dinucleotide 5′[α-^32P]triphosphate (NAD) as a donor of ADP-ribose (˜1000 Ci/mmol, Amersham Pharmacia Biotech). To check the sensitivity to poly- or mono-ADP-ribosylation inhibitors, 3-aminobenzamide (ICN Pharmaceuticals, CA), benzamide, novobiocin and coumermycin A1 (SIGMA®) were added to the reactions prior to adding Sir2 proteins, respectively. The wild type or mutant recombinant proteins (0.5-1 μg for ySir2p and 10 μg of mSir2α) were added with 4 μg of each histone purchased from Roche Molecular Biochemicals (Indianapolis, Ind.). For the peptide experiments, 5-10 μg of unacetylated or acetylated N-terminal tail peptides (amino acids 1-20) of H3 and H4 purchased from Upstate Biotechnology™ (Lake Placid, N.Y.) were used as substrates of the yeast and mouse Sir2 recombinant proteins.
To analyze histone modification, 25 μl of 100% trichloroacetic acid (TCA) solution was mixed to the reaction mixture and left on ice for 15 min. The protein precipitates were centrifuged at 4° C. and washed with 5 or 20% TCA solution twice. The pellets were dissolved in 15 μl of Leammli's sample buffer and boiled for 1.5 min. The proteins were electrophoresed in a 10-20% gradient SDS-PAGE gel. The gel was stained with COOMASSIE® Brilliant Blue R-250 (GibcoBRL Life Technologies™, Frederick, Md.) to check equal loading of histones, dried, and exposed to KODAK® X-OMAT film.
The sensitivity of the ADP-ribosylase activity of mSir2α to poly ADP-ribosylation inhibitors (3-aminobenzamide and benzamide) and mono-ADP-ribosylation inhibitors (novobiocin and coumermycin A1) was evaluated. (FIG. 4F).

Sir2p = biological target: T2, Sir2p (Saccharomyces cerevisiae, UniProt P06700); experiment: NAD-dependent deacetylation of di-acetylated H3 peptide by recombinant yeast Sir2p (HPLC); assay type: biochemical; conditions: for function in the deacetylation of the H3 peptide by Sir2p: 1 mM NAD derivative; for inhibition of the deacetylase activity in a reaction with NAD: not shown
T2 construct: purified recombinant yeast (rSir2p) protein, mouse Sir2 (mSir2α) proteins and vector controls; 6×His; made in house; host or cells: E. coli BL21 (DE3), pET28a
Experimental: (§1) The typical reaction of Sir2 deacetylase activity was performed in 50 μl of buffer containing 50 mM Tris-HCl [pH 9.0], 4 mM MgCl2, 0.2 mM DTT, variable concentration of cold nicotinamide adenine dinucleotide (NAD) or NAD derivatives (SIGMA®, MO), 5-10 μg of the purified recombinant Sir2 proteins, and 10 μg of the histone H3 N-terminal tail peptide (amino acid 1-20) di-acetylated at positions 9 and 14 (Upstate Biotechnology™, NY). […] To detect the ADP-ribosylation activity, 8 μCi of NAD 5′-[α-^32P]triphosphate (˜1000 Ci/mmol, Amersham Pharmacia Biotech™, NJ) was added to the same reaction containing 1 μM cold NAD. Histone H3 protein (4 μg) (Roche Molecular Biochemicals™, IN) were used for this assay. All reaction mixtures were incubated at room temperature for 1 hr. Trichostatin A and coumermycin A1 (SIGMA™) were prepared in dimethylsulfoxide (DMSO, SIGMA®), and 5 μl of solvent or inhibitor was added to the reactions prior to adding Sir2 proteins.
(§2) After the incubation, the products were precipitated at −20° C. overnight by adding 50 μl of distilled water and 25 μl of 100% trichloroacetic acid (TCA) solution. For high pressure liquid chromatography (HPLC), the precipitates were reconstituted in 5% CH3CN and 0.1% trifluoroacetic acid (TFA) and run in the gradient concentration between 0.05% TFA and 0.043% TFA plus 80% CH3CN on Hewlett Packard Model 1100 HPLC system with 214TP52 column (VYDAC, CA). The chromatograms at the absorbance of 210 nm were digitally recorded and analyzed by Hewlett Packard ChemStation™ system (version A.06.03 [509]). Fractions of samples were collected every 1 min by Gilson™ Fraction Collector Model 203. Peptide sequencing was done by the Applied Biosystems PROCISE® 494 HT protein sequencing system. PTH amino acid chromatograms were recorded and analyzed by the ABI Model 610A2.1 data integration/analysis system.
The experiments employed purified recombinant Sir2p in a reaction with NAD and a peptide of the histone H3 amino-terminal tail (residues 1-20) di-acetylated at lysines 9 and 14. These lysines are hypoacetylated in silenced chromatin and mutations at these positions to glycine greatly reduce silencing in vivo (Thompson, J. S., et al., Nature 369: 245-247 (1994)). The products of a reaction containing 5 μg of recombinant yeast Sir2p (79 pmoles) (FIG. 8a), 10 μg of the H3 peptide (4.2 nmoles) increasing concentrations of NAD were analyzed s by high pressure liquid chromatography (HPLC).

[1] = tested on: mono-ADP-ribosyltransferases; conditions: literature value; read-out: reported IC50 concentration; cited from earlier work
[2] = tested on: di-acetylated H3 peptide (residues 1-20 acetylated on Lys9 and Lys14); experiment: deacetylase activity of recombinant Sir2p and Sir2p core domain mutants on H3 peptide; assay type: biochemical; conditions: for NAD-dependent histone H3 deacetylase activity, of wild type activity: 5 μg recombinant protein
Experimental: as §1, §2
(§3) BL21 with SIR2 or the sir2 mutants subcloned into pET28a (NOVAGEN®) were induced with 1 mM IPTG for 1 hr. The recombinant proteins were purified by Nickel-NTA column under native condition. Ribosylation and deacetylation assays were performed using 1 μg of recombinant protein for the ribosylation assay and 5 μg for the deacetylation assay.
A set of mutations in highly conserved residues of the core domain of SIR2 were constructed by site-directed mutagenesis (FIG. 17a) and cloned into vectors, along with the wild type, to allow expression of the recombinant proteins in E. coli or expression of single-copy genes from the native SIR2 promoter in S. cerevisiae. These 6×his (SEQ ID NO: 39) tagged proteins were purified from E. coli by a Ni-NTA column (FIG. 17b) and analyzed for the NAD-dependent histone H3 deacetylase activity in an assay with a di-acetylated H3 peptide (residues 1-20 acetylated on Lys9 and Lys14) and 1 mM NAD. HPLC separation of the reaction products yields five peaks of which 1, 2, a portion of 3 and 4 are deacetylated species of peptide (FIG. 15).

histone H3 = experiment: ADP-ribosyltransferase activity of Sir2p core domain mutants; assay type: biochemical; conditions: histone H3 substrate; relative to wild type
Experimental: as §1
Electron-spray mass spectroscopy (also referred to herein as mass spectroscopy) was done on the PE Sciex Model API365™ system. Matrix assisted laser desorption/ionization (MALDI) mass spectroscopy can also be used. The electron-spray mass spectroscopy data were analyzed by the BioMultiView Program™ (version 1.3.1). To detect the ADP-ribosylated intact H3 protein, the pellets were dissolved in 15 μl of Leammli sample buffer, boiled for 1.5 min and electrophoresed in a 10-20% gradient SDS-PAGE gel. The gel was stained with Coomassie Brilliant Blue to check equal loading of histones, dried, and exposed to KODAK® X-OMAT film. To analyze the ADP-ribosylated H3 peptides, 10 μl of each reaction mixture was spotted on a cellulose TLC plate (EM Science™, NJ). The chromatography was performed for 9-10 hrs in a TLC chamber containing the 65:5:3:2:29 mixture of isobutyric acid, pyridine, acetic acid, butanol and water (Scheidtmann, K. H., et al., J. Virol. 44:116-133 (1982)). The plate was dried and exposed to KODAK® X-OMAT film. The peptide spots were checked by ninhydrin staining.
as §3
The Sir 2 mutant proteins were also analyzed for ADP-ribosyltransferase activity using the histone H3 substrate, (FIG. 17c). […] The same pattern of activities was observed using a peptide of the N-terminal tail of histone H3 (not shown).

T2 sequence (P06700 whole entry): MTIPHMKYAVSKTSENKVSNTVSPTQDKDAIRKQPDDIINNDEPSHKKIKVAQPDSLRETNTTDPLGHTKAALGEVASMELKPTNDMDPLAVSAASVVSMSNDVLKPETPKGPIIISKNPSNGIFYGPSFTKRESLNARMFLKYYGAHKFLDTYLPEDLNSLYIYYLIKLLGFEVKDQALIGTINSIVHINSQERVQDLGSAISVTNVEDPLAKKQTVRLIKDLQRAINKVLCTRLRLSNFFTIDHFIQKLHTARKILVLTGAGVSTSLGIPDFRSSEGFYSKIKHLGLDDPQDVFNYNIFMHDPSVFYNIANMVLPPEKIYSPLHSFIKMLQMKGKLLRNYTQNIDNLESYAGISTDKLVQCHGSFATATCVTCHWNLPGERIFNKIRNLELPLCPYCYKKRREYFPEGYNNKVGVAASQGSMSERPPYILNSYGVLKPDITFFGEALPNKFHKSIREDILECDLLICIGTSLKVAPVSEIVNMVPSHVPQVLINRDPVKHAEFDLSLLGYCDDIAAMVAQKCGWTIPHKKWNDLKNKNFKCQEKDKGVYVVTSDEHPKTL

Compound	NAD-dependent histone H3 deacetylase activity, of wild type activity ([2]; 1 mM NAD)	ADP-ribosyltransferase activity (histone H3)	other results
NC(=O)c1cccc(N)c1 [3-aminobenzamide]			inhibition of the ADP-ribosylation activity of the mSir2α protein (mSir2α): did not inhibit
NC(=O)C1=CN([C@@H]2O[C@H](COP(=O)(O)OP(=O)(O)OC[C@H]3O[C@@H](n4cnc5c(N)ncnc54)[C@H](O)[C@@H]3O)[C@@H](O)[C@H]2O)C=CC1 [NADH]			function in the deacetylation of the H3 peptide by Sir2p (Sir2p): functioned weakly; inhibition of the deacetylase activity in a reaction with NAD (Sir2p): neither NADH nor NADP significantly inhibited
NC(=O)C1=CN([C@@H]2O[C@H](COP(=O)(O)OP(=O)(O)OC[C@H]3O[C@@H](n4cnc5c(N)ncnc54)[C@H](OP(=O)(O)O)[C@@H]3O)[C@@H](O)[C@H]2O)C=CC1 [NADPH]			function in the deacetylation of the H3 peptide by Sir2p (Sir2p): did not function significantly
NC(=O)c1ccc[n+]([C@@H]2O[C@H](COP(=O)([O-])OP(=O)(O)OC[C@H]3O[C@@H](n4cnc5c(N)ncnc54)[C@H](OP(=O)(O)O)[C@@H]3O)[C@@H](O)[C@H]2O)c1 [NADP]			function in the deacetylation of the H3 peptide by Sir2p (Sir2p): did not function significantly; inhibition of the deacetylase activity in a reaction with NAD (Sir2p): neither NADH nor NADP significantly inhibited
CC(/C=C/C(=O)NO)=C\[C@@H](C)C(=O)c1ccc(N(C)C)cc1 [TSA, trichostatin A]			inhibition of deacetylation by Sir2p (Sir2p; 400 nM): does not affect; also recorded: totally incapable of inhibiting
NC(=O)c1ccccc1 [benzamide]			inhibition of the ADP-ribosylation activity of the mSir2α protein (mSir2α): did not inhibit
CO[C@@H]1[C@@H](OC(N)=O)[C@@H](O)[C@H](Oc2ccc3c(O)c(NC(=O)c4ccc(O)c(CC=C(C)C)c4)c(=O)oc3c2C)OC1(C)C [novobiocin]			inhibition of ADP-ribosylation by mSir2α (mSir2α; 200 μM): strongly inhibited; IC50 [1]: 370 µM
Sir2p: purified recombinant 6×His-tagged yeast Sir2 protein			input peptide deacetylated ([2]; areas under HPLC peaks 1, 2 and 4, 1 mM NAD): at least 27%; acetyl lysines at positions 9 and 14 deacetylated ([2]; peak 4, Edmann degradation, in the presence of NAD): 23-27%
mutant 261: 6×His tagged yeast Sir2p core domain mutant, Thr-261 mutated to alanine	17%	4%	
mutant 270: 6×His tagged yeast Sir2p core domain mutant, Gly-270 mutated to alanine	80%	7%	
mutant 271: 6×His tagged yeast Sir2p core domain mutant, Iso-271 mutated to alanine	36%	8%	
mutant 275: 6×His tagged yeast Sir2p core domain mutant, Arg-275 mutated to alanine	67%	about as active as wild type	
mutant 345: 6×His tagged yeast Sir2p core domain mutant, Asn-345 mutated to alanine	inactive	completely inactive	
mutant 347: 6×His tagged yeast Sir2p core domain mutant, Asp-347 mutated to alanine	inactive	completely inactive	
